Experimental data taken from US8957032B2, “Inhibition of gliadin peptides” (Alba Therapeutics Corporation, priority 2008, dated 2015).
Ends that are not written are not given here. * marks the point of attachment. FITC = O=C1OC2(c3ccc(O)cc3Oc3cc(O)ccc32)c2ccc(NC(=S)*)cc21

How the values were obtained:
[1] = tested on: CaCO2 cell monolayer; test: Permeability of a CaCO2 cell monolayer to a gliadin fragment; assay type: cell-based
From the text: (§1) The inventors have discovered that peripheral blood mononuclear cells (PBMCs) secrete signals that increase epithelial monolayer permeability on response to stimulation with lipopolysaccharide […] and pepsin/trypsin treated gliadin (PTG). These secreted signals are present in PBMC culture supernatant, and they increase permeability of CaCO2 cell monolayers to Lucifer yellow when presented to the basolateral aspect of these cells. These permeability changes are inhibited by treatment of the cells with peptide permeability inhibitors of the invention (FIGS. 5A, 5B, 6A, 6B, 7A, 7B, 8A and 8B). The inventors have also discovered that specific peptides within the PTG mixture are capable of crossing epithelial cell monolayers in vitro, and that this peptide specific mechanism can be inhibited by peptide permeability inhibitors of the invention (FIGS. 3 and 4).

[2] = tested on: CaCO2 cells; test: Lucifer yellow permeability of CaCO2 cells exposed basolaterally to PBMC culture supernatants; assay type: cell-based; settings: donors 00022, 00023, 00064, 00065; for Effect on baseline permeability to Lucifer yellow: control and untreated PBMC supernatant, measured after 72 hours; for Effect on permeability changes induced by LPS treated PBMC supernatant / Effect on permeability changes induced by PTG treated PBMC supernatant: Lucifer yellow measured after 72 hours
Procedure: After formation of tight junctions CaCO2 cells were exposed basolaterally to control supernatant (control), untreated PBMC supernatant (PBMC sup), LPS treated PBMC supernatant (PBMC-LPS) and PTG treated PBMC supernatant (PBMC-PTG). Lucifer yellow permeability was measured after 72 hours (day 3).
After formation of tight junctions CaCO2 cells were exposed basolaterally to PBMC supernatants as described above. […]
as §1

[3] = tested on: PBMCs; test: Cytokine expression in PBMCs treated with PTG or LPS (ELISA); assay type: cell-based, human; settings: PTG 1 mg/ml or LPS 1 μg/ml
Procedure: PBMCs were suspended in RPMI medium supplemented with 5% heat inactivated human AB serum, and 2×10^5 cells were plated in each well of a 96 well plate. Cells were incubated at 37° C. with PTG (1 mg/ml) or LPS (1 μg/ml) in the presence or absence of test compounds being examined for the ability to suppress cytokine production. Supernatant samples were harvested following treatment, and cytokines were assayed by ELISA (R&D Systems).

[4] = tested on: intestinal tissue; settings: ex vivo human tissue and mice; background section; cited from earlier work
[5] = inhibitor added apically after 48 hours (day 2)
[6] = inhibitor added apically on day 0

Substance: FITC-C6-PYPQPQLPY ({FITC-C6}-PYPQPQLPY) [gliadin peptide, FITC-labelled, reference compound]
- Permeability of the monolayer ([1]; FIG. 4, apical exposure of the monolayer to the gliadin peptide): increase in permeability

Substance: GGVLVQPG [SEQ ID NO:1]
- Effect on increase in permeability to gliadin peptide PYPQPQLPY (SEQ ID NO:163) ([1]; FIG. 3, apical exposure to gliadin peptide, apical treatment with inhibitor): blocked
- Effect on increase in permeability induced by gliadin peptide ([1]; FIG. 4, apical exposure to FITC-C6-PYPQPQLPY, 13-mer gliadin peptide SEQ ID NO:164 named in legend): blocked
- Effect on baseline permeability to Lucifer yellow [2, 5]: abolished
- Effect on baseline permeability to Lucifer yellow [2, 6]: abolished
- Effect on permeability changes induced by LPS treated PBMC supernatant [2, 5]: significantly reduced
- Effect on permeability changes induced by PTG treated PBMC supernatant [2, 5]: significantly reduced
- Effect on permeability changes induced by LPS treated PBMC supernatant [2, 6]: no significant effect
- Effect on permeability changes induced by PTG treated PBMC supernatant [2, 6]: no significant effect
- Effect on expression of IL-6, IL-8, MIP-1α and Gro-α induced by LPS and PTG [3]: not reduced
- Effect on increased expression of GM-CSF and IL-16 induced by LPS and PTG [3]: inhibited
- Gliadin induced reduction in intestinal Rt (resistance) [4]: inhibits
- Peak of F-actin increment induced by gliadin [4]: blocks

Substance: PYPQPQLPY (listed as Triticum sp.) [SEQ ID NO:163, gliadin peptide]
- Permeability of the monolayer to the gliadin peptide ([1]; FIG. 3, apical exposure of the monolayer to the gliadin peptide): increase in permeability
